Assay results as given in patent US11389433B2, “BRD4 inhibitor treatment of IgE-mediated diseases” (THE BOARD OF REGENTS OF THE UNIVERSITY OF TEXAS SYSTEM, priority 2018, dated 2022).
Blank lines part the entries; values can stand above or below the compound they belong to.

What was measured:
[1] = cited from earlier work
[2] = tested on: rCDE-challenged C57BL/6 mice; assay: Repetitive cat dander extract (rCDE) challenge, airway remodeling model; type: in vivo, mouse; conditions: 10 mg/kg ip; for modified Ashcroft score: rCDE alone 8.8±2 (IKKi study), 9±2 (ZL0454 study)
Protocol: 12 week old male wild-type (WT) C57BL/6 mice were purchased from Jackson Laboratory (Bar Harbor, Me.). CDE (Stallergenes/Greer laboratories, 20 μg/dose) was administered to naïve C57BL6/J mice every other day via the intranasal route for a total of 15 administrations (n=5 mice/group). In the IKK inhibitor experiments, mice were either pretreated with vehicle or the selective IKK inhibitor [BMS345541, 10 mg/kg via the intraperitoneal (ip) route]. […] Mice were sacrificed 12 d later to allow resolution of the acute inflammation.
Formalin-fixed lungs were embedded in paraffin, sectioned at a 4 μm thickness, and stained with hematoxylin and eosin or Masson's trichrome. Microscopy was performed on a NIKON Eclipse Ti System 16, 17. Pulmonary fibrosis was graded using a modified Ashcroft scoring method 16, 17. In brief, to determine the fibrosis histopathology score for the lung of each mouse, the entire left and right longitudinal lung sections were scored separately (score range, 0 to 9) at ×100 magnification, and the scores were combined (total score range, 0 to 18)^16, 17.
Bronchoalveolar lavage and tissue processing. Animals were anesthetized, bronchoalveolar lavage fluid (BALF) was obtained and the mice sacrificed. Lung tissues were taken for total RNA extraction or fixed for histological examination. For histological examination, lungs were inflated under 25 cm H2O pressure with 10% (v/v) neutral buffered formalin through the tracheal cannula and immersed in 10% buffered formalin for at least 24 h. After being processed into paraffin blocks, the lungs were cut into 5-μm sections and stained with Masson Trichrome to assess fibrotic changes. Microscopy was performed on a NIKON Eclipse Ti System^75.
Quantification of accumulated mucin was assessed by 2 investigators who were blind to the treatment groups on a subjective scale of 0, 1, 2, 3, and 4 corresponding to none, mild, moderate, marked, or severe mucin deposition, respectively. Data were expressed as means of scores recorded by 2 blinded investigators^76,77.
(§1) Cellular recruitment into the airway lumen was assessed in the collected bronchoalveolar lavage fluid (BALF) of mice. Lungs were perfused twice with 1 mL of sterile PBS (pH 7.4) and total cell counts determined by trypan blue staining and counting using a hemocytometer. Differential cell counts were performed on cytocentrifuge preparations (Cytospin 3; Thermo Shandon, Pittsburgh, Pa.) stained with Wright-Giemsa. A total of 300 cells were counted per sample using light microscopy.
(§2) For gene expression analyses, 0.1 μg of cDNA product from reverse transcription of total RNA was amplified using SYBR Green Supermix (Bio-Rad) and gene-specific primers as previously described^75, 78. Quantification of relative changes in gene expression was calculated using the ΔΔCt method^79,80 and expression as the fold change between experimental and control samples was normalized to internal control peptidylprolyl isomerase A (PPI1A)/cyclophilin A.
Confocal Immunofluorescence assays of lung sections were performed on formalin-fixed, paraffin-embedded sections after rehydration using serial concentrations of ethanol. Antigen retrieval was performed in Tris-EDTA buffer (pH 9.0). Lung sections were blocked using 0.1% Triton-X, 5% normal goat serum in phosphate buffered saline (PBS) and incubated with primary antibodies of rabbit anti-p276RelA, pIKKα/β, SNAIL H3K122ac, COL1A, VIM, FN1, and αSMA (Abcam, 1:100 dilution) overnight at 4° C. Normal anti-rabbit IgG were used as staining specificity controls. After washing, lung sections were stained with Alexa Fluor 488- or 568-conjugated goat anti-rabbit IgG (Life Technologies) in incubation buffer for 1 h. Nuclei were stained with 4′, 6-diamidino-2-phenylindole (DAPI) (5 μg/ml in PBS, 20 min) and mounted slides visualized with a LSM510 fluorescence confocal microscope, magnification 63×.
Total IgE in serum were measured using Sandwich ELISA. […]

CIG5 = assay: Inhibition of CIG5 induction in hSAECs; type: cell-based; conditions: Homo sapiens
hSAECs = assay: CDE-induced mesenchymal transition of hSAECs; type: cell-based, human; conditions: CDE 20 μg/mL 15 d; 10 μM
Protocol: Immortalized human small airway epithelial cells (hSAECs) were previously described^25. hSAECs were grown in SAGM small airway epithelial cell growth medium (Lonza, Walkersville, Md.) in a humidified atmosphere of 5% CO2. BMS345541 was purchased from Sigma Aldrich. CDE was purchased from Greer Laboratories.
as §2
hSAECs were incubated ±CDE (20 μg/mL) for 15 d, re-plated on glass cover slips pretreated with rat tail collagen (Roche Applied Sciences), and fixed with 4% paraformaldehyde in PBS. Afterwards, the fixed cells were stained with Alexa Fluor® 488- or 568-phalloidin (Life Technologies) for cytoplasmic distribution of F-actin (green or red color) and also counterstained with 4′,6-diamidino-2-phenylindole (DAPI) for nuclear staining (blue color). The cells were visualized with a Nikon fluorescence confocal microscope at a magnification of 63×^75, 78.
For immunofluorescence staining, hSAECs were plated on rat tail collagen-treated cover glasses and stimulated with CDE for the indicated times. The cells were fixed with 4% paraformaldehyde in PBS and incubated with 0.1 m ammonium chloride for 10 min. […] After washing, cells were stained with Alexa Fluor 488- or 568-conjugated goat anti-rabbit IgG (Life Technologies) respectively in incubation buffer for 1 h, then visualized with a LSM510 fluorescence confocal microscope, magnification 63×.

BRD4 = BRD4 (Homo sapiens, UniProt O60885); conditions: in cellulo; cited from earlier work
[3] = 3 months of administration; cited from earlier work
[4] = tested on: acute CDE-challenged mice; assay: Acute intranasal CDE challenge, BALF cell counts; type: in vivo, mouse; conditions: 10 mg/kg; within 24 h of treatment
From the text: FIG. 12. BRD4 pathway mediates CDE-induced EMT of airway epithelial cells. […] A, Q-RT-PCR for CDH1 mRNA expression. #, p<0.01, compared to without CDE, n=3. B, Q-RT-PCR for SNAI1 mRNA expression. *, p<0.01, compared to CDE alone, n=3. C, Q-RT-PCR for COL1A, FN1, and VIM mRNA expression. D, Q-RT-PCR for IL6 mRNA expression. E, Confocal immunofluorescence microscopy for phalloidin (green color), H3K122-Ac (red color), SNAI1 (green color), and VIM (red color) counterstained with DAPI (blue color) in WT hSAECs in absence or presence of CDE (20 μg/mL, 15d) stimulation. Images were acquired at 63×. At right are quantifications of relative fluorescence intensities of phalloidin, H3K122ac, SNAIL and VIM, * p<0.01, n=5. […] Shown are total, macrophage, and neutrophil counts in BALF 24 h later after CDE challenge. G. Total serum IgE was quantitated for each chronic treatment group **, p<0.01, n=5.
as §1

IL-6 = assay: Inhibition of IL-6 induction in hSAECs; type: cell-based; conditions: Homo sapiens

Structure (SMILES): CCC(=O)O[C@]1(C(=O)SCF)[C@H](C)C[C@H]2[C@@H]3C[C@H](F)C4=CC(=O)C=C[C@]4(C)[C@@]3(F)[C@@H](O)C[C@@]21C [Fluticasone propionate]
- solubility in dimethyl sulfoxide and dimethylformamide [1]: freely soluble
- solubility in methanol and 95% ethanol [1]: slightly soluble
- solubility in water ([1]; water): practically insoluble

Structure (SMILES): Cc1ccc2nc(NCCN)c3ncc(C)n3c2c1 [IKKi, reference compound]
- total leukocytes in the BALF ([2]; rCDE 15 intranasal challenges, rCDE alone 1,700×10^3): 450×10^3 cells/ml
- CDE-specific circulating IgE (allergic sensitization) ([2]; rCDE): completely blocked
- PAS staining (mucin, mucous metaplasia) ([2]; rCDE): blocked
- fibrosis / collagen formation and hypercellularity (Masson trichrome) ([2]; rCDE): reduced the fibrosis and hypercellularity, although not completely in the alveoli
- mesenchymal and ECM gene mRNA expression in total lung RNA (Q-RT-PCR) ([2]; rCDE): inhibited
- mucosal mesenchymal and ECM proteins (SNAI1, VIM, COL1A, FN1), immunofluorescence ([2]; rCDE): completely blocked
- subepithelial αSMA+/COL1+ myofibroblast population ([2]; rCDE): blocked
- hydroxyproline concentration in BALF and lung tissue ([2]; rCDE, rCDE alone 2-fold increase): normalized
- modified Ashcroft score ([2]; rCDE): 2±1
- phospho-IKKα/β abundance in the airway epithelial layer ([2]; rCDE, rCDE alone 9-fold increase): reduced to control values
- mucosal phospho-Ser 276 RelA formation ([2]; rCDE, rCDE alone 14-fold increase): blocked

- IC50 (CIG5): 420 nM
Structure (SMILES): Cc1cc(/N=N/c2ccc3c(c2)CCC(=O)N3)c(N)cc1O [ZL0420]

Structure (SMILES): Cc1cc(/N=N/c2ccc(S(=O)(=O)NC3CCCC3)cc2)c(N)cc1O [ZL0454, (E)-4-((2-Amino-4-hydroxy-5-methylphenyl)diazenyl)-N-cyclopentylbenzenesulfonamide]
- CDE-induced inhibition of CDH1 mRNA (hSAECs): blocked
- CDE-induced upregulation of SNAI1, FN1, VIM, COL1A and IL6 mRNAs (hSAECs): significantly blocked
- formation of actin stress fibers, H3K122 Ac, SNAI1 and VIM expression (confocal immunofluorescence) (hSAECs): prevented
- CDE-specific circulating IgE (allergic sensitization) ([2]; rCDE): completely blunted allergic responses
- PAS staining (mucin, mucous metaplasia) ([2]; rCDE): reduced
- RelA-BRD4 binding in lung sections (proximity ligation assay) ([2]; rCDE): disrupted
- fibrosis / collagen formation and hypercellularity (Masson trichrome) ([2]; rCDE): reduced collagen formation and hypercellularity
- mesenchymal and ECM gene mRNA expression in total lung RNA (Q-RT-PCR) ([2]; rCDE): BRD4-dependent
- mucosal H3K122 Ac staining (BRD4 HAT activity) ([2]; rCDE): inhibited
- mucosal mesenchymal and ECM proteins (SNAI1, VIM, COL1A, FN1), immunofluorescence ([2]; rCDE): inhibited
- subepithelial αSMA+/COL1+ myofibroblast population ([2]; rCDE): blocked
- hydroxyproline content in the lung ([2]; rCDE, rCDE alone 0.65±1): 0.35 ± 0.4 µg/mg
- modified Ashcroft score ([2]; rCDE): 1.5±0.5
- hydroxyproline content in BALF ([2]; rCDE, rCDE alone 130±20): 70 ± 10 ng/mL
- BRD4 binding to Pol II and histones (BRD4): disrupts
- tolerability / apparent toxicity [3]: well tolerated over 3 months of administration without apparent toxicity
- acute CDE-induced BALF neutrophilia [4]: blocked

- IC50 (CIG5): 2600 nM
- IC50 (IL-6): 2800 nM
Structure (SMILES): COc1cc(OC)c2c(=O)cc(-c3cc(C)c(OCCO)c(C)c3)oc2c1 [ZL0468]
